Laboratory results taken from patent US20030008331A1, “Directed evolution biosensors” (priority 1998, published 2003).

System: cells which do not express the β2-adrenergic receptor (wild type)
Assay: melanophore pigment dispersion assay, wild type cells
Assay type: cell-based, frog
Conditions: wild type melanophores, two successive tests

CC(C)(C)NCC(O)c1ccc(O)c(CO)c1 (stereo not shown) [salbutamol]
response of cells to challenge: did not respond
